Data published in the NIST ThermoML archive (doi:10.1016/j.jct.2006.05.008).

Experiment: molar heat capacity at constant pressure
Conditions: 101.33 kPa, Small (less than 1 g) adiabatic calorimetry

CCCCn1cc[n+](C)c1.[Br-] [1-butyl-3-methylimidazolium bromide]
Conditions	molar heat capacity at constant pressure [J/K/mol]
122.75 K, Glass	139.07
123.63 K, Crystal	131.11
124.78 K, Glass	140.32
125.66 K, Crystal	132.08
126.82 K, Glass	141.79
127.7 K, Crystal	133.1
128.85 K, Glass	143.22
129.73 K, Crystal	134.32
130 K, Crystal	134.3
130.89 K, Glass	144.53
131.77 K, Crystal	135.36
132.93 K, Glass	145.61
133.82 K, Crystal	136.37
134.98 K, Glass	147.16
135.86 K, Crystal	137.63
137.02 K, Glass	148.47
137.9 K, Crystal	138.69
139.07 K, Glass	149.68
139.95 K, Crystal	139.77
140 K, Crystal	139.7
141.11 K, Glass	150.96
142 K, Crystal	140.95
143.16 K, Glass	152.33
144.05 K, Crystal	142.17
145.21 K, Glass	153.64
146.11 K, Crystal	143.29
147.27 K, Glass	154.99
148.17 K, Crystal	144.04
149.33 K, Glass	156.22
150 K, Crystal	145.1
150.23 K, Crystal	145.16
151.38 K, Glass	157.56
152.28 K, Crystal	146.48
153.44 K, Glass	158.85
154.34 K, Crystal	147.77
155.5 K, Glass	160.15
156.4 K, Crystal	148.83
157.55 K, Glass	161.46
158.47 K, Crystal	149.86
159.61 K, Glass	162.88
160 K, Crystal	150.5
160.53 K, Crystal	151.03
161.68 K, Glass	164.21
162.59 K, Crystal	152.18
163.74 K, Glass	165.38
164.66 K, Crystal	153.33
165.8 K, Glass	166.7
166.73 K, Crystal	154.42
167.87 K, Glass	168.08
168.79 K, Crystal	155.67
169.93 K, Glass	169.45
170 K, Crystal	156
170.86 K, Crystal	156.71
172 K, Glass	170.75
172.93 K, Crystal	157.83
174.07 K, Glass	172.09
175 K, Crystal	159
176.14 K, Glass	173.39
177.07 K, Crystal	160.17
178.21 K, Glass	174.81
179.15 K, Crystal	161.41
180 K, Crystal	161.6
180.29 K, Glass	176.19
181.23 K, Crystal	162.53
182.37 K, Glass	177.61
183.3 K, Crystal	163.73
184.44 K, Glass	178.88
185.38 K, Crystal	164.89
186.51 K, Glass	180.34
187.45 K, Crystal	166.26
188.59 K, Glass	181.72
189.53 K, Crystal	167.35
190 K, Crystal	167.4
190.66 K, Glass	183.15
191.61 K, Crystal	168.45
192.74 K, Glass	184.62
193.69 K, Crystal	169.62
194.82 K, Glass	186.01
195.77 K, Crystal	170.97
196.9 K, Glass	187.63
197.85 K, Crystal	172.33
198.98 K, Glass	189.28
199.93 K, Crystal	173.55
200 K, Crystal	173.4
201.07 K, Glass	191
202.01 K, Crystal	174.87
203.15 K, Glass	192.74
204.09 K, Crystal	176.17
205.24 K, Glass	194.6
206.18 K, Crystal	177.52
207.34 K, Glass	196.57
208.26 K, Crystal	178.87
209.44 K, Glass	199.14
